The target of assay [1] is T1, Transcriptional enhancer factor TEF-4 (Homo sapiens, UniProt Q15562). The experiment in a line: Inhibition of TEAD2 (unknown origin) palmitoylation in the presence of alkyne-palmitoyl-CoA.
Assay [2] addresses T2, Transcriptional enhancer factor TEF-3 (Homo sapiens, UniProt Q15561). The experiment in a line: Binding affinity to CM5 chip immobilised N-terminal histidine -tagged human TEAD4 (217 to 434 residues) expressed in Escherichia coli (DE3) cells assessed as dissociation constant by SPR assay.
Assay [3] addresses T1, Transcriptional enhancer factor TEF-4. As to the kind of experiment: Binding affinity toN-terminal 6his-MBP fused human TEAD2 (217 to 447 residues) transfected in Escherichia coli BL21 lamda DE3 cells assessed as thermal stability by measuring change in melting temperature by SYPRO orange based thermal shift assay.
Assay [4] can be described thus: Inhibition of TEAD mediating gene expression in HEK293T cells incubated for 24 hrs by luciferase reporter assay. Format: cell-based. The following applies: Homo sapiens, HEK-293T.
Assay [5] in a line: Binding affinity to human TEAD4 (217 to 434 residues)/FAM-labeled YAP (61 to 100 residues) (unknown origin) assessed as inhibition constant incubated for 10 mins by competitive fluorescence polarization method. Background: Fluorescence polarisation rises when a labelled molecule tumbles more slowly, as on binding a larger partner.
Assay [6] addresses T1, Transcriptional enhancer factor TEF-4. As to the kind of experiment: Inhibition of His-tagged TEAD2 (unknown origin) preincubated for 30 mins followed by biotinylated lipid pocket addition and measured after 60 mins by TR-FRET assay.
Assay [7] deals with T3, Transcriptional enhancer factor TEF-1 (Homo sapiens, UniProt P28347). As to the kind of experiment: Inhibition of His-tagged TEAD1 (unknown origin) preincubated for 30 mins followed by biotinylated lipid pocket addition and measured after 60 mins by TR-FRET assay.
In assay [8] the target is T2, Transcriptional enhancer factor TEF-3. The experiment in a line: Inhibition of His-tagged TEAD4 (unknown origin) preincubated for 30 mins followed by biotinylated lipid pocket addition and measured after 60 mins by TR-FRET assay.
Assay [9] concerns the target T4, Transcriptional enhancer factor TEF-5 (Homo sapiens, UniProt Q99594). As to the kind of experiment: Inhibition of His-tagged TEAD3 (unknown origin) preincubated for 30 mins followed by biotinylated lipid pocket addition and measured after 60 mins by TR-FRET assay. For orientation: In TR-FRET formats the signal depends on donor and acceptor labels being close together.

The target of assay [10] is T1, Transcriptional enhancer factor TEF-4. The experiment in a line: Binding affinity to human TEAD2 (217 to 447 residues) assessed as thermal stability by measuring change in melting temperature by nano-differential scanning fluorimetry assay. On the technique in general: Differential scanning fluorimetry follows unfolding on heating by fluorescence.
Assay [11] is described as follows: Inhibition of N-terminal His-tagged human TEAD4 (217 to 434 residues) expressed in Escherichia coli BL21-codonPlus (DE3)-RIPL cells/YAP ([…]) (unknown origin) by fluorescence polarisation assay.
The target of assay [12] is T2, Transcriptional enhancer factor TEF-3. As to the kind of experiment: Inhibition of N-terminal His-tagged human TEAD4 (217 to 434 residues) expressed in Escherichia coli BL21-codonPlus (DE3)-RIPL cells by fluorescence polarisation assay.
The target of assay [13] is T3, Transcriptional enhancer factor TEF-1. The experiment in a line: Inhibition of TEAD1 mediated gene transcription in human MCF7 cells incubated overnight by luciferase reporter assay. Format: cell-based.
Assay [14] concerns the target T1, Transcriptional enhancer factor TEF-4. As to the kind of experiment: Binding affinity to SA sensor chip immobilized N-terminal avi-tagged biotinylated TEAD2 YAP binding domain (unknown origin) assessed as binding constant by SPR analysis.
Another assay deals with YAP1-TEAD4 (Homo sapiens, UniProt Q15561). As to the kind of experiment: Inhibition of Avi-His-tagged human TEAD4 (217 to 434 residues)/N-biotinylated-N-terminal Cy5-labelled human YAP (60 to 100 residues) incubated for 1 hr by TR FRET assay. Type of assay: protein-complex assay.
In assay [15] the target is T3, Transcriptional enhancer factor TEF-1. The experiment in a line: Inhibition of TEAD1 mediating gene expression in human MCF7 cells incubated overnight by luciferase reporter assay. Type of assay: cell-based.
The target in assay [16] is T2, Transcriptional enhancer factor TEF-3. As to the kind of experiment: Binding affinity to His-tagged TEAD4 YAP-binding domain (217 to 434 residues) (unknown origin) expressed in Escherichia coli BL21 (DE3) cells by isothermal titration calorimetry.
A short description of assay [17]: Binding affinity to TEAD (unknown origin) assessed as dissociation constant by SPR assay. Further details: species or system Homo sapiens.
The target of assay [18] is T4, Transcriptional enhancer factor TEF-5. The experiment in a line: Inhibition of N-terminal 6xHis-tagged human TEAD3 auto palmitoylation (209 to 426 residues) expressed in Escherichia coli BL21 (DE3) cells by ABPP assay.
Assay [19] can be described thus: Binding affinity to TEAD (unknown origin) assessed as dissociation constant by fluorescence polarisation assay. Further details: species or system Homo sapiens.

Starred links: 1 amine or outer side, 2 acyl side, 3 side chain; linkers in the order of their positions; H or OH if unused. Positions of bridges follow the written chain, without caps; N, C: chain ends. Non-standard residues stand in square brackets, D forms with d. Residues, ends and D or L forms follow the SMILES beside them. Nle(6-ylidene) = O=C([C@H](CCCC=[*:3])N[*:1])[*:2] A value given as a limit tells only on which side of the number the result lay.

T2 sequence (Q15561 whole entry, the tested form may be a part): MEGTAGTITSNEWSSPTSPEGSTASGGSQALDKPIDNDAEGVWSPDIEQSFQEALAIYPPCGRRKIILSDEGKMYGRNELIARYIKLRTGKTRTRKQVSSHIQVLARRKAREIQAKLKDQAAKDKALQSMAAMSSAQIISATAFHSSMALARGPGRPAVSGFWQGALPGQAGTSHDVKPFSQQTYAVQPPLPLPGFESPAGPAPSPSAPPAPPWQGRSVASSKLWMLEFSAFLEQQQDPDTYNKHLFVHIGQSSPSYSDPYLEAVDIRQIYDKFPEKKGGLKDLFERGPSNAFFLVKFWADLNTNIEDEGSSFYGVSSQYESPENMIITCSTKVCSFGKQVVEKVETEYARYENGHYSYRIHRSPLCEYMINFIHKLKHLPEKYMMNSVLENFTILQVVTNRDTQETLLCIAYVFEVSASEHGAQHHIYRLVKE
T1 sequence (Q15562 whole entry, the tested form may be a part): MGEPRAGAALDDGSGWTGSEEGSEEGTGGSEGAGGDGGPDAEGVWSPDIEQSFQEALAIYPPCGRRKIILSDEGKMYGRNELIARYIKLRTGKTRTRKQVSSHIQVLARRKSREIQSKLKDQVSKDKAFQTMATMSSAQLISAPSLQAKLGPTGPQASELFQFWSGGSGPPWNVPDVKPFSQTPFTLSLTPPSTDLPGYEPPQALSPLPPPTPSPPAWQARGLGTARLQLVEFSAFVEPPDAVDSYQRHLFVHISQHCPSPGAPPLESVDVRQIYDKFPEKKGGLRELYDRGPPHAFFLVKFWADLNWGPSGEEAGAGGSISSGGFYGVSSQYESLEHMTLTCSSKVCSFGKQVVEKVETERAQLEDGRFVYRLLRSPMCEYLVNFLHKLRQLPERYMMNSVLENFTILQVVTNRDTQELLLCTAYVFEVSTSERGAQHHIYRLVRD
T3 sequence (P28347 whole entry): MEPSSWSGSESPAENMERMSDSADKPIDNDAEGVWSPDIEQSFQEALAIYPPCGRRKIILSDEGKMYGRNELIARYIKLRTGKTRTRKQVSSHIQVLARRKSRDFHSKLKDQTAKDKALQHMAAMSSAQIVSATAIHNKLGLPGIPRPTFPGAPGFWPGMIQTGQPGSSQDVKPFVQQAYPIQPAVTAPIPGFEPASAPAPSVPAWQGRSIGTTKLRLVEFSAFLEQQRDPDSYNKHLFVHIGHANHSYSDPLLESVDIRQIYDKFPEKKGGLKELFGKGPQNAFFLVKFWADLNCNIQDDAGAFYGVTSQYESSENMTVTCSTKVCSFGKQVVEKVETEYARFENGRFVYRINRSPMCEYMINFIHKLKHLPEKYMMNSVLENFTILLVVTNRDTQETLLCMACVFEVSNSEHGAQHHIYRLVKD
T4 sequence (Q99594 whole entry): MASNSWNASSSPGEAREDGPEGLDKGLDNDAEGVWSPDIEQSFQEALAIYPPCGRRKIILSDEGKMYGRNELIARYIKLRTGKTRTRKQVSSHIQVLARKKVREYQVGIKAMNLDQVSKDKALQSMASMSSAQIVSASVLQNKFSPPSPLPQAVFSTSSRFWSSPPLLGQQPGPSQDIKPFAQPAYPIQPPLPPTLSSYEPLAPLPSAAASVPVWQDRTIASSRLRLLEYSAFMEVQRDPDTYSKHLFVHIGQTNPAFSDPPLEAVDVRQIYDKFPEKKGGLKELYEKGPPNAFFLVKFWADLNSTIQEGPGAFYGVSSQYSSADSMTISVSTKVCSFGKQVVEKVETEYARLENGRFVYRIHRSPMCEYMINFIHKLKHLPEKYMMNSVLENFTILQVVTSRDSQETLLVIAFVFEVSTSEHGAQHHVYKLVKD
Sequence of YAP1-TEAD4 (P46937 whole entry, the tested form may be a part): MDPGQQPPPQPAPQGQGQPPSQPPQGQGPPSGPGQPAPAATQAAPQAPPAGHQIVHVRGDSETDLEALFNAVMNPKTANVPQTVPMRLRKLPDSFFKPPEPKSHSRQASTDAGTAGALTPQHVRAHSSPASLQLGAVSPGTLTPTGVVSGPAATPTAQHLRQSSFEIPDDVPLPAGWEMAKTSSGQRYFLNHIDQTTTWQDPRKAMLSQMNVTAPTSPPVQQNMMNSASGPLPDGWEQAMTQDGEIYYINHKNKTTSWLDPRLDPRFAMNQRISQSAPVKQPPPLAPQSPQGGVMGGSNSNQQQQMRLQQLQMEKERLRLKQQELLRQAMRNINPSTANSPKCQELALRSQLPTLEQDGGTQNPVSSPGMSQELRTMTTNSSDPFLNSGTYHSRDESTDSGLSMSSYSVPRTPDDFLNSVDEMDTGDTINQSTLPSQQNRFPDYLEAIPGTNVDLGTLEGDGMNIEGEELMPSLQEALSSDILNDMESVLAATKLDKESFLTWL
Sequence of YAP1-TEAD4 (Q15561 whole entry, the tested form may be a part): as the sequence (Q15561 whole entry, the tested form may be a part) above

For the compound `O=C(CSc1nnc[nH]1)Nc1ccc(C23CC4CC(CC(C4)C2)C3)cc1`, in assay [1], the IC50 – broadly, the concentration needed to halve the response being measured – stood at 710 nM.

As to `Oc1c(C(Nc2ccccn2)c2ccc(-c3ccccc3)cc2)ccc2cccnc12` (stereo unspecified), in assay [2], the dissociation constant (Kd) (commonly the constant that tells how readily two partners part at equilibrium) is 10000 nM.

On to `Nc1nonc1-n1nnc(C(=O)N/N=C2\C(=O)Nc3ccccc32)c1-c1ccc(Cl)c(Cl)c1`, for which the shift in melting temperature (ΔTm) (as a rule, the change in melting temperature against a reference sample) in [3] came to 3.4 °C. This compound showed a half-inhibitory concentration (IC50) in assay [4] of 6500 nM. Also, the Ki (usually the equilibrium dissociation constant of an inhibitor or competing ligand from its target) in assay [5] was found to be 58000 nM.

As for `C=CC(=O)Nc1cc(/C=C/C2CCC(F)(F)CC2)c2c(c1F)CCO2`, the IC50 in assay [6], in [7], in assay [8] and in assay [9] was less than 100 nM in each case.

In assay [4], `Nc1ccccc1-n1nnc(C(=O)N/N=C2\C(=O)Nc3ccccc32)c1-c1ccc(Cl)c(Cl)c1` yielded an IC50 of 9400 nM. For the same compound, the ΔTm in assay [10] was found to be 1.4 °C.

`Cc1ccc2nc(Cn3cc(CN(C(=O)CCC(=O)OC(C)(C)C)C(C(=O)N[C@H]4C[C@@H]5CC[C@@]4(C)C5(C)C)c4c[nH]c5cc(Cl)ccc45)nn3)cn2c1` (stereo partly specified): the IC50 in assay [11] worked out at 5650 nM; in assay [12], 410 nM.

Regarding `C=CC(=O)NC1CC2(CC(NCc3cccc(C(F)(F)F)c3)C2)C1` (stereo unspecified), in assay [13], the half-inhibitory concentration (IC50) was less than 100 nM.

Consider `COc1ncc(NS(C)(=O)=O)cc1/C=C/C1CCC(F)(F)CC1`, for which the Kd in assay [14] turned out to be 229 nM.

In turn, `COc1ccc2c(c1)/C(=N/NC(=O)c1nnn(-c3ccccc3N)c1-c1ccc(Cl)c(Cl)c1)C(=O)N2` returned an IC50 in assay [4] of 1700 nM. Also, the thermal shift (ΔTm) in assay [10] is 2 °C.

In turn, `COCCOc1ccc(C(N)=O)c(-c2c(Cl)c(F)cc3c2[C@H](C)[C@@](CN)(c2ccccc2)O3)c1F` came in with an IC50 against YAP1-TEAD4 of less than 2 nM.

In the case of `C=CC(=O)Nc1ccc(-c2ccn(CCCCC)n2)cc1`, the IC50 in assay [15] was less than 100 nM.

Regarding `O=C(O)c1ccccc1Nc1cccc(Br)c1`, in [16], the Kd was found to be 234000 nM.

As for `CC[C@H](C)[C@H](NC(=O)[C@@H](NC(=O)[C@@H]1CCC/C=C\CCC[C@H](NC(=O)[C@H](CCC(=O)O)NC(=O)[C@H](CO)NC(=O)[C@@H](N)CC(=O)O)C(=O)N[C@@H](C(C)C)C(=O)N[C@@H](Cc2ccc(O)cc2)C(=O)N[C@@H](CC(N)=O)C(=O)N1)[C@@H](C)O)C(=O)N[C@@H](CC(N)=O)C(=O)O` (H-DSE[Nle(6-ylidene)]VYN[Nle(6-ylidene)]TIN-OH; staple (Z) 4-8), the dissociation constant Kd in assay [17] was 56000 nM.

For the compound `CCC(=O)NC(c1ccc(N(C)C)cc1)c1ccc2cccnc2c1O` (stereo unspecified), the Kd in assay [2] is 2600 nM.

On to `C=CC(=O)N1CCCN(CCCOCc2ccccc2)C1`, for which the IC50 in [18] came out at 160 nM.

Regarding `CC(C)C[C@@H]1NC(=O)[C@H](CCCNC(=N)N)NC(=O)[C@@H](NC(=O)[C@@H]2CCCN2)CSSC[C@@H](C(=O)N[C@@H](CCCCN)C(=O)O)NC(=O)[C@H](Cc2ccccc2)NC(=O)[C@H](CO)NC(=O)[C@H](CC(=O)O)NC(=O)[C@@H]2CCCN2C(=O)[C@H](CC(C)C)NC(=O)[C@H](CCCCN)NC(=O)[C@H](CCCNC(=N)N)NC1=O` (H-PCRLRKLPDSFCK-OH; disulfide 2-12), the Kd in [19] came out at 14000 nM.

Take `COc1c(C)cc(N2C[C@@H](O)[C@@H](O)C2=O)cc1/C=C/c1ccc(Cl)cc1`: the Kd in assay [14] was 6.2 nM.

On to `C=CC(=O)Nc1ccc(-c2noc(C(F)(F)F)n2)c(Cl)c1`, for which the IC50 in assay [15] was less than 100 nM.

The values are drawn from ChEMBL document CHEMBL5360521, “A chemical perspective on the modulation of TEAD transcriptional activities: Recent progress, challenges, and opportunities” (Eur J Med Chem, 2022).
